Experimental findings from PubChem BioAssay (NCI) are described below.

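96-well plates; 48 h exposure; 5 concentrations. Endpoints by linear interpolation between flanking doses. Not reached: highest tested concentration assigned. The concentration for 50% growth inhibition is given as GI50. TGI: concentration producing complete growth inhibition.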

Some test systems named below: UO-31 renal; T-47D breast; HL-60(TB) leukemia; HOP-92 NSCLC; TK-10 renal; HCC-2998 colon; CAKI-1 renal; 786-0 renal; NCI-H23 lung; RXF 393 renal.
Common to all, as to experiment: DTP human tumour cell line panel, 48 h

As a reminder, the GI50 is the concentration that inhibits growth by half. Usually TGI stands for the concentration at which net growth stops. In the case of `CN(C)CCN1C(=O)c2cccc3c(N)ccc(c23)C1=O`, the GI50 is 6.76 µM in the test on UO-31 renal; 17 µM with T-47D breast; 4.33 µM in the test on HL-60(TB) leukemia; 19.4 µM in the test with HOP-92 NSCLC; 9.15 µM in the test on TK-10 renal; 17.8 µM in the test with HCC-2998 colon. The GI50 in the test with CAKI-1 renal is 4.86 µM; with 786-0 renal, 14.1 µM; in the test on NCI-H23 lung, 15 µM; with RXF 393 renal it was 7.91 µM. Besides, the TGI in the test with UO-31 renal was more than 25 µM; in the test with T-47D breast, more than 25 µM; in the test on HL-60(TB) leukemia, 18.9 µM; in the test with HOP-92 NSCLC it was more than 25 µM; in the test with TK-10 renal it was more than 25 µM; with HCC-2998 colon, more than 25 µM. In addition, the TGI was 15 µM in the test with CAKI-1 renal, more than 25 µM with 786-0 renal, more than 25 µM in the test on NCI-H23 lung and 24.8 µM with RXF 393 renal.
Consider `O=C(C[C@@]1(O)C(=O)Nc2c(Cl)ccc(Cl)c21)c1ccc(C2CC2)cc1`, for which the GI50 with UO-31 renal was 0.585 µM; in the test on T-47D breast, 0.454 µM; with HL-60(TB) leukemia, 0.263 µM; in the test on HOP-92 NSCLC, 1.46 µM; in the test on TK-10 renal, 15.1 µM; in the test with HCC-2998 colon, 0.888 µM. In addition, the GI50 in the test on CAKI-1 renal is 0.214 µM; in the test on 786-0 renal it was 1.39 µM; in the test with NCI-H23 lung, 0.634 µM; in the test on RXF 393 renal, 0.257 µM. In addition, the TGI with UO-31 renal turned out to be 18.5 µM; in the test with T-47D breast, 32.5 µM; in the test with HL-60(TB) leukemia it was 1.07 µM; in the test on HOP-92 NSCLC, 19.7 µM; in the test on TK-10 renal, 46.6 µM; with HCC-2998 colon it was 14.8 µM. Also, the TGI in the test with CAKI-1 renal was 17.2 µM; in the test with 786-0 renal, 20 µM; with NCI-H23 lung it was 19.3 µM; with RXF 393 renal, 4.03 µM.
On to `COc1ccc2[nH]c(-c3ccccc3)c(C=C(C#N)C#N)c2c1`, for which the GI50 with UO-31 renal was 6.43 µM; with T-47D breast, 2.29 µM; in the test on HL-60(TB) leukemia it was 2.5 µM; in the test with HOP-92 NSCLC, 2.4 µM; in the test with TK-10 renal, 5.07 µM; in the test with HCC-2998 colon it was 6.08 µM. Further, the GI50 is 4.13 µM with CAKI-1 renal, 6.63 µM with 786-0 renal, 4.08 µM in the test with NCI-H23 lung and 9.82 µM with RXF 393 renal. Further, the TGI in the test on UO-31 renal was more than 100 µM; in the test on T-47D breast, 9.14 µM; in the test on HL-60(TB) leukemia, 13.2 µM; in the test with HOP-92 NSCLC, 36.4 µM; in the test with TK-10 renal, more than 100 µM; in the test on HCC-2998 colon, more than 100 µM. In addition, the TGI with CAKI-1 renal, in the test on 786-0 renal, with NCI-H23 lung and with RXF 393 renal was more than 100 µM each time.
For the compound `COc1ccc2c(c1)C(=O)c1c-2c(OCCN(C)C)nc2cc(OC)ccc12`, the GI50 was 1.16 µM with UO-31 renal; 6.1 µM in the test with T-47D breast; 1.98 µM with HL-60(TB) leukemia; 1.65 µM with HOP-92 NSCLC; 3.14 µM in the test with TK-10 renal; 1.33 µM in the test with HCC-2998 colon. For the same compound, the GI50 with CAKI-1 renal was 2.12 µM; with 786-0 renal, 1.46 µM; in the test with NCI-H23 lung it was 1.36 µM; in the test with RXF 393 renal it was 1.54 µM. Besides, the TGI in the test on UO-31 renal turned out to be 2.66 µM; in the test on T-47D breast it was 21.8 µM; in the test with HL-60(TB) leukemia, 4.26 µM; with HOP-92 NSCLC, 7.02 µM; with TK-10 renal, 13.7 µM; with HCC-2998 colon, 2.85 µM. The TGI is 11.1 µM with CAKI-1 renal, 2.84 µM in the test on 786-0 renal, 3.5 µM with NCI-H23 lung and 4.52 µM in the test with RXF 393 renal.
With `OC(COc1cccc2ccccc12)CN1CCN(c2ccc(Cl)cc2)CC1` (stereo not given), the GI50 was 15.5 µM in the test with UO-31 renal; 81.3 µM in the test with T-47D breast; more than 100 µM in the test on HL-60(TB) leukemia; 5.02 µM with HOP-92 NSCLC; 10.1 µM in the test with TK-10 renal; more than 100 µM in the test with HCC-2998 colon. The GI50 was 5.8 µM in the test with CAKI-1 renal, 16.3 µM in the test on 786-0 renal, 29.4 µM in the test with NCI-H23 lung and 28.6 µM with RXF 393 renal. In addition, the TGI was 36.1 µM in the test on UO-31 renal; more than 100 µM in the test with T-47D breast; more than 100 µM in the test on HL-60(TB) leukemia; 28 µM in the test on HOP-92 NSCLC; 26.5 µM in the test with TK-10 renal; more than 100 µM in the test with HCC-2998 colon. Also, the TGI in the test with CAKI-1 renal is 31.4 µM; in the test on 786-0 renal, 33.1 µM; in the test on NCI-H23 lung it was more than 100 µM; with RXF 393 renal, 75.9 µM.
As for `FC(F)(F)c1[nH]ncc1-c1nc2c(N3CCCCC3)cc3[nH]ncc3c2c2c1CCCC2`, the GI50 in the test on UO-31 renal is 0.873 µM; with T-47D breast it was 0.756 µM; in the test on HL-60(TB) leukemia it was 1.23 µM; with HOP-92 NSCLC it was 0.29 µM; with TK-10 renal, 0.615 µM; in the test with HCC-2998 colon it was 0.929 µM. Also, the GI50 in the test with CAKI-1 renal was 0.711 µM; with 786-0 renal, 0.905 µM; in the test with NCI-H23 lung it was 0.791 µM; with RXF 393 renal it was 0.395 µM. The TGI in the test with UO-31 renal was 3.01 µM; in the test with T-47D breast it was more than 13.7 µM; in the test on HL-60(TB) leukemia it was 3.32 µM; with HOP-92 NSCLC, 1.62 µM; in the test on TK-10 renal it was more than 50 µM; in the test with HCC-2998 colon it was 3.06 µM. In addition, the TGI is 3.06 µM in the test with CAKI-1 renal, 2.93 µM in the test on 786-0 renal, 2.99 µM in the test with NCI-H23 lung and 1.07 µM in the test with RXF 393 renal.
Take `O=C(CCc1ccco1)NC1CCN(CC2(c3ccc(Cl)cc3)CCC2)CC1`: the GI50 was 7.37 µM with UO-31 renal; 16.2 µM in the test on T-47D breast; 15.5 µM in the test with HL-60(TB) leukemia; 4.69 µM in the test on HOP-92 NSCLC; 14.5 µM with TK-10 renal; 6.02 µM in the test with HCC-2998 colon. Besides, the GI50 with CAKI-1 renal is 13.3 µM; with 786-0 renal it was 12.6 µM; with NCI-H23 lung it was 16.9 µM; in the test on RXF 393 renal, 8.53 µM. Moreover, the total growth inhibition concentration (TGI) in the test on UO-31 renal came to 21.3 µM; with T-47D breast, 46.6 µM; in the test on HL-60(TB) leukemia, 38.9 µM; in the test with HOP-92 NSCLC it was 20.3 µM; in the test with TK-10 renal, 28.3 µM; with HCC-2998 colon it was 19.7 µM. Further, the TGI is 27.2 µM in the test on CAKI-1 renal, 25.8 µM with 786-0 renal, 38.7 µM in the test with NCI-H23 lung and 22.6 µM in the test on RXF 393 renal.
